# Assay results from ChEMBL document CHEMBL1134031, “Dimeric L-dopa derivatives as potential prodrugs” (Bioorg Med Chem Lett, 2001).
# Values joined by “and” are separate entries in the source; they are usually repeats but may differ in a detail not shown here. Equal values may be shown once.
# What was measured:
# [1] = human, plasma
# Description: (§1) Observed rate constant in 80% human plasma at 37 degree Centigrade
# [2] = pH 1.3
# Description: Observed rate constant at a pH of 1.3
# [3] = human, plasma; remark: listed apart in the source
# Description: as §1
# [4] = physchem; conditions: pH 1.3
# Description: Half life period at a pH 1.3 was determined
# [5] = pH 7.4
# Description: Observed rate constant at a pH of 7.4
# [6] = human, plasma; remark: listed apart in the source
# Description: (§2) Half life period in 80% human plasma at 37 degree Centigrade
# [7] = in vitro; conditions: rat, 80% rat plasma
# Description: Half life period in 80% rat plasma at 37 degree Centigrade
# [8] = organism: Rattus norvegicus
# Description: Observed rate constant in 80% rat plasma at 37 degree Centigrade
# [9] = physchem; conditions: octanol/phosphate buffer, pH 7.4
# Description: Partition coefficient value in octanol and phosphate buffer (log P) at pH of 7.4 was determined.
# [10] = physchem; conditions: dog, in vivo, pH 7.4
# Description: Half life period at a pH 7.4 was determined
# [11] = in vitro; conditions: human, 80% human plasma, T1/2
# Description: as §2
k2 obs [1],K obs [2],k1 obs [3],half-life [4],K obs [5],T1/2 [6],half-life [7],K obs [8],logD [9],half-life [10],half-life [11],Structure (SMILES)
0.0025 min⁻¹,0.042 h⁻¹,0.0068 min⁻¹,16.5 h,0.049 h⁻¹,1.698 h and 4.62 h,0.407 h,0.028 min⁻¹,1.04,14.2 h,–,COC(=O)[C@H](Cc1ccc(OC(C)=O)c(OC(C)=O)c1)NC(=O)N[C@@H](Cc1ccc(OC(C)=O)c(OC(C)=O)c1)C(=O)OC
0.0045 min⁻¹,0.032 h⁻¹,0.0083 min⁻¹,20 h,0.049 h⁻¹,2.547 h,0.102 h,0.11 min⁻¹,0.73,14.2 h,1.38 h,COC(=O)[C@H](Cc1ccc(OC(C)=O)c(OC(C)=O)c1)NC(=O)C(=O)N[C@@H](Cc1ccc(OC(C)=O)c(OC(C)=O)c1)C(=O)OC

# Continued, molecule first:
Structure (SMILES),k2 obs [1],K obs [2],k1 obs [3],half-life [4],K obs [5],T1/2 [6],half-life [7],K obs [8],logD [9],half-life [10],half-life [11]
COC(=O)[C@H](Cc1ccc(OC(C)=O)c(OC(C)=O)c1)NC(=O)CCCCC(=O)N[C@@H](Cc1ccc(OC(C)=O)c(OC(C)=O)c1)C(=O)OC,0.01 min⁻¹,0.014 h⁻¹,0.081 min⁻¹,48.8 h,0.04 h⁻¹,–,0.0683 h,0.17 min⁻¹,0.92,17.3 h,–
COC(=O)[C@H](Cc1ccc(OC(C)=O)c(OC(C)=O)c1)NC(=O)CCCC(=O)N[C@@H](Cc1ccc(OC(C)=O)c(OC(C)=O)c1)C(=O)OC,0.0045 min⁻¹,0.01 h⁻¹,0.011 min⁻¹,68.1 h,0.05 h⁻¹,1.05 h and 2.57 h,0.0483 h,0.24 min⁻¹,0.87,13.9 h,–
COC(=O)[C@H](Cc1ccc(OC(C)=O)c(OC(C)=O)c1)NC(=O)CCC(=O)N[C@@H](Cc1ccc(OC(C)=O)c(OC(C)=O)c1)C(=O)OC,0.0086 min⁻¹,0.13 h⁻¹,0.052 min⁻¹,55.4 h,0.043 h⁻¹,–,0.0333 h,0.34 min⁻¹,0.85,16.2 h,–
